Source: the NIST ThermoML archive (doi:10.1021/je400488x)
± gives the expanded uncertainty stated by the source.

How the values were obtained:
[1] = 293.15 K; 101.33 kPa; Liquid; Vibrating tube method
[2] = refractive index (Na D-line) (dimensionless); conditions: 298.15 K; 101.33 kPa; Liquid; Standard Abbe refractometry

**Q.** Which mass density [1] does the source give for Oc1ccc(O)cc1 [1,4-benzenediol] here?
**A.** 1328 ± 1 kg/m3

**Q.** For COC(C)(C)C [2-methoxy-2-methylpropane], which mass density [1] is on record?
**A.** 739.8 ± 0.4 kg/m3

**Q.** What about the refractive index [2] of the same compound?
**A.** 1.3689 ± 0.0005
